# Reference: PMC4466095 (Bioorganic & medicinal chemistry, 2014)
# Tests used:
# Assay type in all cases: cell-based
# FPR1 = biological target: T1, FPR1 (Homo sapiens, UniProt P21462); test: Ca2+ mobilization in FPR1-transfected HL-60 cells
# T1 sequence (P21462 1-350): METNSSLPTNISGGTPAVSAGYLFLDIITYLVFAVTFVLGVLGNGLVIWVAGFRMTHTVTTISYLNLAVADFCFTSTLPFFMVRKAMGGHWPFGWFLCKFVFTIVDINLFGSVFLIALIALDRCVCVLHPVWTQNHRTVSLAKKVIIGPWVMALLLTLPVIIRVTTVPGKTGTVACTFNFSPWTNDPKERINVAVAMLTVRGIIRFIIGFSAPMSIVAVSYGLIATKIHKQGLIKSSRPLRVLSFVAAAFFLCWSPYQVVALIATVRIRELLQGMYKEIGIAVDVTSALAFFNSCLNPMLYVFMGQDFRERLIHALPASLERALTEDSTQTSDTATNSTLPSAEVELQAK
# FPR2 = biological target: T2, FPR2 (Homo sapiens, UniProt P25090); test: Ca2+ mobilization in FPR2-transfected HL-60 cells
# T2 sequence (P25090 1-351): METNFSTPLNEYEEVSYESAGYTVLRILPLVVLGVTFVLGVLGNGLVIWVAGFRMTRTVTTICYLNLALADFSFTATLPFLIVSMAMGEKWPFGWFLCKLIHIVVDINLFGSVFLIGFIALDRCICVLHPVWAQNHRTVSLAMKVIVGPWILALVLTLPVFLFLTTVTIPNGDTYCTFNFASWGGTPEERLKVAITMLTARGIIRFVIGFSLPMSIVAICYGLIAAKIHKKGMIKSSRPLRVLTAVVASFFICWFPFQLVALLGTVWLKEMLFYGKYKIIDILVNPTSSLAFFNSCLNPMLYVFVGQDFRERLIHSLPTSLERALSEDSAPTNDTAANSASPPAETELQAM
# human neutrophils = test: Ca2+ mobilization in human neutrophils
# mouse neutrophils = test: Ca2+ mobilization in mouse neutrophils; conditions: Neutrophil, read-out: EC50, Ca2+ mobilization, Mouse PMN
SMILES,Ca2+ mobilization in FPR1-HL60 cells (in words) (FPR1),activation of FPR2 in FPR2-HL60 cells and in human neutrophils (in words) (FPR2),Ca2+ mobilization in human neutrophils (in words) (human neutrophils),EC50 (mouse neutrophils),difference in potency between enantiomers in activation of human neutrophils (human neutrophils; (S)-9a vs (R)-9a),"Efficacy, Ca2+ mobilization, Human PMN (w/o probenecid) (human neutrophils; without probenecid, normalized to 5 nM fMLF = 100%)"
"COc1ccc(NC(=O)N[C@@H](Cc2c[nH]c3ccccc23)C(=O)NCC2(c3ccc(F)cc3)CCCCC2)cc1 [(S)-9f, (S)-N-[[1-(4-Fluorophenyl)cyclohexyl]methyl]-3-(1H-indol-3-yl)-2-[3-(4-methoxyphenyl)ureido]propanamide]",unable to stimulate Ca^2+ mobilization,active,only in the presence of probenecid,2300 ± 350 nM,,
"COc1ccc(NC(=O)N[C@@H](Cc2c[nH]c3ccccc23)C(=O)NCC2(c3ccccc3)CCCCC2)cc1 [(S)-9c, (S)-3-(1H-Indol-3-yl)-2-[3-(4-methoxyphenyl)ureido]-N-[(1-phenylcyclohexyl)methyl]propanamide]",,,not able to induce Ca^2+ mobilization,2500 ± 610 nM,,
"COc1ccc(NC(=O)N[C@H](Cc2c[nH]c3ccccc23)C(=O)NCC2(c3cccnc3)CCCCC2)cc1 [(R)-9d, (R)-3-(1H-Indol-3-yl)-2-[3-(4-methoxyphenyl)ureido]-N-[[1-(3-pyridinyl)cyclohexyl]methyl]propanamide]",,,not able to induce Ca^2+ mobilization,2100 ± 580 nM,,
"COc1ccc(NC(=O)N[C@H](Cc2c[nH]c3ccccc23)C(=O)NCC2(c3ccccn3)CCCCC2)cc1 [(R)-9e, (R)-3-(1H-Indol-3-yl)-2-[3-(4-methoxyphenyl)ureido]-N-[[1-(2-pyridinyl)cyclohexyl]methyl]propanamide]",,,,1000 ± 270 nM,,
"COc1ccc(NC(=O)N[C@@H](Cc2c[nH]c3ccccc23)C(=O)NCC2(c3ccc(OC)cn3)CCCCC2)cc1 [(S)-9a, (S )-3-(1H-indol-3-yl)-2-[3-(4-methoxyphenyl)ureido]-N -[[1-(5-methoxy-2-pyridinyl)cyclohexyl]methyl]propanamide]",stimulated Ca^2+ mobilization,,,240 ± 70 nM,> 14 fold,100%
"COc1ccc(NC(=O)N[C@H](Cc2c[nH]c3ccccc23)C(=O)NCC2(c3ccc(OC)cn3)CCCCC2)cc1 [(R)-9a, (R)-3-(1H-Indol-3-yl)-2-[3-(4-methoxyphenyl)ureido]-N-[[1-(5-methoxy-2-pyridinyl)cyclohexyl]methyl]propanamide]",,,,4900 ± 1400 nM,,
COc1ccc(NC(=O)N[C@H](Cc2c[nH]c3ccccc23)C(=O)NCC2(c3ccnc(F)c3)CCCCC2)cc1 [(R)-9b],,inactive,not able to induce Ca^2+ mobilization,2300 ± 730 nM,,
"COc1ccc(NC(=O)N[C@H](Cc2c[nH]c3ccccc23)C(=O)NCC2(c3ccc(F)cc3)CCCCC2)cc1 [(R)-9f, (R)-N-[[1-(4-Fluorophenyl)cyclohexyl]methyl]-3-(1H-indol-3-yl)-2-[3-(4-methoxyphenyl)ureido]propanamide]",,inactive,not able to induce Ca^2+ mobilization,2500 ± 420 nM,,
"COc1ccc(NC(=O)N[C@@H](Cc2c[nH]c3ccccc23)C(=O)NCC2(c3ccccn3)CCCCC2)cc1 [(S)-9e, (S)-3-(1H-Indol-3-yl)-2-[3-(4-methoxyphenyl)ureido]-N-[[1-(2-pyridinyl)cyclohexyl]methyl]propanamide]",stimulated Ca^2+ mobilization,,,2800 ± 640 nM,,
"COc1ccc(NC(=O)N[C@H](Cc2c[nH]c3ccccc23)C(=O)NCC2(c3ccccc3)CCCCC2)cc1 [(R)-9c, (R)-3-(1H-Indol-3-yl)-2-[3-(4-methoxyphenyl)ureido]-N-[(1-phenylcyclohexyl)methyl]propanamide]",unable to stimulate Ca^2+ mobilization,,only in the presence of probenecid,3800 ± 1300 nM,,
"COc1ccc(NC(=O)N[C@@H](Cc2c[nH]c3ccccc23)C(=O)NCC2(c3cccnc3)CCCCC2)cc1 [(S)-9d, (S)-3-(1H-Indol-3-yl)-2-[3-(4-methoxyphenyl)ureido]-N-[[1-(3-pyridinyl)cyclohexyl]methyl]propanamide]",unable to stimulate Ca^2+ mobilization,able to activate FPR2,,3900 ± 1500 nM,,
COc1ccc(NC(=O)N[C@@H](Cc2c[nH]c3ccccc23)C(=O)NCC2(c3ccnc(F)c3)CCCCC2)cc1 [(S)-9b],unable to stimulate Ca^2+ mobilization,active,,1700 ± 440 nM,,
